Results on two molecules are retold here after patent US20250154212A1, “METHOD OF DISRUPTING MEMORY AND LIPOPEPTIDE FOR USE IN SUCH METHOD” (The Research Foundation for The State University of New York, priority 2023, published 2025).

The assay has as its system spatial long-term memory in PKMζ-null mice. The experiment in a line: Active place avoidance, intrahippocampal injection, PKMζ-null mice. The assay is classed as in vivo, mouse. The following applies: 5 nmol in 0.5 μl per hippocampus 1 day after conditioning, tested 2 days post-injection. How it is done: For spatial long-term memory experiments, we adapted the approach used in Garcia-Osta et al. (82). Mice were ˜12-weeks old at surgery. Briefly, to implant the injection cannula hardware, mice were anesthetized by an intraperitoneal (i.p.) injection of a mixture of dexmedetomidine ([…] body weight) and ketamine (28 mg/kg body weight), and mounted in a Kopf stereotaxic frame (Tujunga, CA). The tips of guide cannula (Plastics One, Roanoke, VA; Part Numbers: C235GS-5-2.0) were targeted above the injection target in the dorsal hippocampus (AP-1.94 mm; ML±1.00 mm; DV-0.90 mm). The other injection hardware (Part Numbers: C235DCs-5, 303DC/1; cannula dummy, cannula cap, respectively) was assembled, and antisedan (0.65 mg/kg body weight i.p.) was administered to reverse the sedation at the end of surgery.
Three to four weeks after surgery, the animals received active place avoidance training. […]
Active place avoidance was conducted with a commercial computer-controlled system (Bio-Signal Group, Acton, MA). […] Every 33 ms, the software determined the mouse's position, whether it was in the shock zone, and whether to deliver shock. […]
The tracked animal positions with timestamps were analyzed offline (TrackAnalysis, Bio-Signal Group, Acton, MA) to extract several end-point measures. […]

“Also recorded” adds a separate entry of the source. Where no end group is shown, it is not given here. The star is where a group is joined. Myristoyl = CCCCCCCCCCCCCC(=O)*

Consider `O=S(=O)(O)c1cc(O)c2c(S(=O)(=O)O)cc(S(=O)(=O)O)cc2c1` [ζ-stat, 1-naphthol-3,6,8-trisulphonic acid], for which the “spatial memory retention (time to first enter shock zone), 3-day memory” value is on record as “avoided the shock zone as well as those that had received vehicle; also recorded: not different than vehicle”.
On to “myr-N-FVRNSLERRSVRMKRPS-C (Myristoyl-FVRNSLERRSVRMKRPS) [K-ZAP]”, for which the “spatial memory retention (time to first enter shock zone), 3-day memory” value is reported as “has no effect on memory retention; also recorded: intact memory retention”.
